{"source": "patent US10118935B2", "about": "“Melampomagnolide B dimers” (priority 2014, dated 2018)", "key": {"[1]": {"system": "SN12C", "experiment": "NCI 60 cell line five dose, Renal Cancer", "conditions": "read-out: LC50, molar"}, "[2]": {"system": "SK-MEL-5", "experiment": "NCI 60 cell line five dose, Melanoma"}, "[3]": {"system": "OVCAR-5", "experiment": "NCI 60 cell line five dose, Ovarian Cancer"}, "[4]": {"system": "A498", "experiment": "NCI 60 cell line five dose, Renal Cancer"}, "[5]": {"system": "CCRF-CEM", "experiment": "NCI 60 cell line five dose, Leukemia"}, "[6]": {"system": "RXF 393", "experiment": "NCI 60 cell line five dose, Renal Cancer"}, "[7]": {"system": "PC-3", "experiment": "NCI 60 cell line five dose, Prostate Cancer"}, "[8]": {"system": "NCI/ADR-RES", "experiment": "NCI 60 cell line five dose, Ovarian Cancer", "conditions": "NCI/ADR-"}, "[9]": {"system": "MALME-3M", "experiment": "NCI 60 cell line five dose, Melanoma", "conditions": "MAL1ME−3M"}, "[10]": {"system": "NCI-H522", "experiment": "NCI 60 cell line five dose, Non-Small Cell Lung Cancer"}, "[11]": {"system": "SNB-75", "experiment": "NCI 60 cell line five dose, CNS Cancer"}, "[12]": {"system": "BT-549", "experiment": "NCI 60 cell line five dose, Breast Cancer"}, "[13]": {"system": "MCF7", "experiment": "NCI 60 cell line five dose, Breast Cancer"}}}
{"smiles": "C=C1C(=O)O[C@H]2[C@H]1CC/C(COC(=O)NCCCCCCCCNC(=O)OC/C1=C/CC[C@@]3(C)O[C@H]3[C@H]3OC(=O)C(=C)[C@@H]3CC1)=C\\CC[C@@]1(C)O[C@@H]21", "note": "[JVM 3-62, bis(((1aR,7aS, 10aS, 10bS, E)-1a-Methyl-8-methylene-9-oxo-1a,2,3,6,7,7a,8,9,10a,10b-decahydrooxireno[2′,3′:9,10]cyclodeca[1,2-b]furan-5-yl)methyl)octane-1,8-diyldicarbamate]", "values": [{"measurement": "CC50", "setting": "[1]", "result": 5490, "unit": "nM"}, {"measurement": "Percent Growth", "setting": "[2]; Log10 Concentration −4.0", "result": "−87", "unit": "%"}, {"measurement": "Percent Growth", "setting": "[2]; Log10 Concentration −5.0", "result": "−89", "unit": "%"}, {"measurement": "Percent Growth", "setting": "[2]; Log10 Concentration −6.0", "result": 63, "unit": "%"}, {"measurement": "Percent Growth", "setting": "[2]; Log10 Concentration −7.0", "result": 95, "unit": "%"}, {"measurement": "Percent Growth", "setting": "[2]; Log10 Concentration −8.0", "result": 99, "unit": "%"}, {"measurement": "GI50", "setting": "[2]; molar", "result": 1210, "unit": "nM"}, {"measurement": "TGI", "setting": "[2]; molar", "result": "2.59E−6"}, {"measurement": "CC50", "setting": "[2]; read-out: LC50, SK-MEL-6, molar", "result": 5530, "unit": "nM"}, {"measurement": "Percent Growth", "setting": "[3]; Log10 Concentration −4.0", "result": "−77", "unit": "%"}, {"measurement": "Percent Growth", "setting": "[3]; Log10 Concentration −5.0", "result": "−80", "unit": "%"}, {"measurement": "Percent Growth", "setting": "[3]; Log10 Concentration −6.0", "result": "−4", "unit": "%"}, {"measurement": "Percent Growth", "setting": "[3]; Log10 Concentration −7.0", "result": 91, "unit": "%"}, {"measurement": "Percent Growth", "setting": "[3]; Log10 Concentration −8.0", "result": 92, "unit": "%"}, {"measurement": "GI50", "setting": "[3]; molar", "result": 269, "unit": "nM"}, {"measurement": "TGI", "setting": "[3]; molar", "result": "9.12E−7"}, {"measurement": "CC50", "setting": "[3]; read-out: LC50, molar", "result": 4040, "unit": "nM"}, {"measurement": "Percent Growth", "setting": "[4]; Log10 Concentration −4.0", "result": "−83", "unit": "%"}, {"measurement": "Percent Growth", "setting": "[4]; Log10 Concentration −5.0", "result": "−91", "unit": "%"}, {"measurement": "Percent Growth", "setting": "[4]; Log10 Concentration −6.0", "result": 91, "unit": "%"}, {"measurement": "Percent Growth", "setting": "[4]; Log10 Concentration −7.0", "result": 104, "unit": "%"}, {"measurement": "Percent Growth", "setting": "[4]; Log10 Concentration −8.0", "result": 94, "unit": "%"}, {"measurement": "GI50", "setting": "[4]; molar", "result": 1690, "unit": "nM"}, {"measurement": "TGI", "setting": "[4]; molar", "result": "3.14E−6"}, {"measurement": "CC50", "setting": "[4]; read-out: LC50, molar", "result": 5830, "unit": "nM"}, {"measurement": "Percent Growth", "setting": "[5]; Log10 Concentration −4.0", "result": "−44", "unit": "%"}, {"measurement": "Percent Growth", "setting": "[5]; Log10 Concentration −5.0", "result": "−45", "unit": "%"}, {"measurement": "Percent Growth", "setting": "[5]; Log10 Concentration −6.0", "result": "−8", "unit": "%"}, {"measurement": "Percent Growth", "setting": "[5]; Log10 Concentration −7.0", "result": 89, "unit": "%"}, {"measurement": "Percent Growth", "setting": "[5]; Log10 Concentration −8.0", "result": 99, "unit": "%"}, {"measurement": "GI50", "setting": "[5]; molar", "result": 255, "unit": "nM"}, {"measurement": "CC50", "setting": "[5]; read-out: LC50, molar", "result": "> 100000", "unit": "nM"}, {"measurement": "Percent Growth", "setting": "[6]; Log10 Concentration −4.0", "result": "−76", "unit": "%"}, {"measurement": "Percent Growth", "setting": "[6]; Log10 Concentration −5.0", "result": "−92", "unit": "%"}, {"measurement": "Percent Growth", "setting": "[6]; Log10 Concentration −6.0", "result": "−82", "unit": "%"}, {"measurement": "Percent Growth", "setting": "[6]; Log10 Concentration −7.0", "result": 85, "unit": "%"}, {"measurement": "Percent Growth", "setting": "[6]; Log10 Concentration −8.0", "result": 96, "unit": "%"}, {"measurement": "GI50", "setting": "[6]; molar", "result": 162, "unit": "nM"}, {"measurement": "TGI", "setting": "[6]; molar", "result": "3.22E−7"}, {"measurement": "CC50", "setting": "[6]; read-out: LC50, molar", "result": 640, "unit": "nM"}, {"measurement": "Percent Growth", "setting": "[7]; Log10 Concentration −4.0", "result": "−91", "unit": "%"}, {"measurement": "Percent Growth", "setting": "[7]; Log10 Concentration −5.0", "result": "−78", "unit": "%"}, {"measurement": "Percent Growth", "setting": "[7]; Log10 Concentration −6.0", "result": 21, "unit": "%"}, {"measurement": "Percent Growth", "setting": "[7]; Log10 Concentration −7.0", "result": 91, "unit": "%"}, {"measurement": "Percent Growth", "setting": "[7]; Log10 Concentration −8.0", "result": 91, "unit": "%"}, {"measurement": "GI50", "setting": "[7]; molar", "result": 385, "unit": "nM"}, {"measurement": "TGI", "setting": "[7]; molar", "result": "1.63E−6"}, {"measurement": "CC50", "setting": "[7]; read-out: LC50, molar", "result": 5200, "unit": "nM"}, {"measurement": "Percent Growth", "setting": "[8]; Log10 Concentration −4.0", "result": "−57", "unit": "%"}, {"measurement": "Percent Growth", "setting": "[8]; Log10 Concentration −5.0", "result": 21, "unit": "%"}, {"measurement": "Percent Growth", "setting": "[8]; Log10 Concentration −6.0", "result": 92, "unit": "%"}, {"measurement": "Percent Growth", "setting": "[8]; Log10 Concentration −7.0", "result": 111, "unit": "%"}, {"measurement": "Percent Growth", "setting": "[8]; Log10 Concentration −8.0", "result": 103, "unit": "%"}, {"measurement": "GI50", "setting": "[8]; molar", "result": 3910, "unit": "nM"}, {"measurement": "TGI", "setting": "[8]; molar", "result": "1.87E−5"}, {"measurement": "CC50", "setting": "[8]; read-out: LC50, molar", "result": 82000, "unit": "nM"}, {"measurement": "Percent Growth", "setting": "[9]; Log10 Concentration −4.0", "result": "−65", "unit": "%"}, {"measurement": "Percent Growth", "setting": "[9]; Log10 Concentration −5.0", "result": "−58", "unit": "%"}, {"measurement": "Percent Growth", "setting": "[9]; Log10 Concentration −6.0", "result": "−55", "unit": "%"}, {"measurement": "Percent Growth", "setting": "[9]; Log10 Concentration −7.0", "result": 95, "unit": "%"}, {"measurement": "Percent Growth", "setting": "[9]; Log10 Concentration −8.0", "result": 95, "unit": "%"}, {"measurement": "GI50", "setting": "[9]; molar", "result": 199, "unit": "nM"}, {"measurement": "CC50", "setting": "[9]; read-out: LC50, molar", "result": 929, "unit": "nM"}, {"measurement": "Percent Growth", "setting": "[10]; Log10 Concentration −4.0", "result": "−66", "unit": "%"}, {"measurement": "Percent Growth", "setting": "[10]; Log10 Concentration −5.0", "result": "−75", "unit": "%"}, {"measurement": "Percent Growth", "setting": "[10]; Log10 Concentration −6.0", "result": "−57", "unit": "%"}, {"measurement": "Percent Growth", "setting": "[10]; Log10 Concentration −7.0", "result": 89, "unit": "%"}, {"measurement": "Percent Growth", "setting": "[10]; Log10 Concentration −8.0", "result": 86, "unit": "%"}, {"measurement": "GI50", "setting": "[10]; molar", "result": 186, "unit": "nM"}, {"measurement": "TGI", "setting": "[10]; molar", "result": "4.07E−7"}, {"measurement": "CC50", "setting": "[10]; read-out: LC50, molar", "result": 893, "unit": "nM"}, {"measurement": "Percent Growth", "setting": "[11]; Log10 Concentration −4.0", "result": "−100", "unit": "%"}, {"measurement": "Percent Growth", "setting": "[11]; Log10 Concentration −5.0", "result": "−51", "unit": "%"}, {"measurement": "Percent Growth", "setting": "[11]; Log10 Concentration −6.0", "result": 61, "unit": "%"}, {"measurement": "Percent Growth", "setting": "[11]; Log10 Concentration −7.0", "result": 78, "unit": "%"}, {"measurement": "Percent Growth", "setting": "[11]; Log10 Concentration −8.0", "result": 72, "unit": "%"}, {"measurement": "GI50", "setting": "[11]; molar", "result": 1250, "unit": "nM"}, {"measurement": "CC50", "setting": "[11]; read-out: LC50, molar", "result": 9840, "unit": "nM"}, {"measurement": "Percent Growth", "setting": "[12]; Log10 Concentration −4.0", "result": "−85", "unit": "%"}, {"measurement": "Percent Growth", "setting": "[12]; Log10 Concentration −5.0", "result": "−80", "unit": "%"}, {"measurement": "Percent Growth", "setting": "[12]; Log10 Concentration −6.0", "result": "−14", "unit": "%"}, {"measurement": "Percent Growth", "setting": "[12]; Log10 Concentration −7.0", "result": 94, "unit": "%"}, {"measurement": "Percent Growth", "setting": "[12]; Log10 Concentration −8.0", "result": 94, "unit": "%"}, {"measurement": "GI50", "setting": "[12]; molar", "result": 257, "unit": "nM"}, {"measurement": "TGI", "setting": "[12]; molar", "result": "7.48E−7"}, {"measurement": "CC50", "setting": "[12]; read-out: LC50, molar", "result": 3570, "unit": "nM"}, {"measurement": "Percent Growth", "setting": "[13]; Log10 Concentration −4.0", "result": "−54", "unit": "%"}, {"measurement": "Percent Growth", "setting": "[13]; Log10 Concentration −5.0", "result": "−75", "unit": "%"}, {"measurement": "Percent Growth", "setting": "[13]; Log10 Concentration −6.0", "result": "−7", "unit": "%"}, {"measurement": "Percent Growth", "setting": "[13]; Log10 Concentration −7.0", "result": 80, "unit": "%"}, {"measurement": "Percent Growth", "setting": "[13]; Log10 Concentration −8.0", "result": 89, "unit": "%"}, {"measurement": "GI50", "setting": "[13]; molar", "result": 221, "unit": "nM"}, {"measurement": "TGI", "setting": "[13]; molar", "result": "8.33E−7"}, {"measurement": "CC50", "setting": "[13]; read-out: LC50, molar", "result": 4300, "unit": "nM"}]}
